Entries after “also recorded” stand apart in the source; their conditions may differ. Read-outs that look alike come from different tables or passages of the source.
What was measured:
[1] = system: H1703 Control (Ctrl)-sh and Nrf2-sh sub-lines; experiment: Cell cycle distribution after SFN, CDDP and CBP501 in H1703 Ctrl-sh and Nrf2-sh sub-lines; assay type: cell-based, Human; details: SFN 24 h prior to 1 h CDDP (2.5 μg/ml)/CBP501 (1 μM)
Procedure: FIGS. 4C, 4D show Analysis of cell cycle distribution changes by using Flow-cytometry (n=4). SFN was subjected 24h to H1703 Control (Ctrl)-sh and Nrf2-sh sub-lines prior to lh treatment of CDDP (2.5 μg/m1)/CBP501 (1 μM). (FIG. 4C) Whole cell cycle distribution. (FIG. 4D) G2-M phase. An asterisk indicates statistical significance (TTEST; p<0.005). Error bars signify standard deviations as determined from four flowcytometric analyses.
Cell cycle analysis. Cells were plated in 24-well plates and incubated for 24 hours. The cells were treated with or without CDDP plus or minus CBP501 at the indicated concentration for the indicated times. The cells were harvested and stained with Krishan's solution (0.1% sodium citrate, 50 μg/ml propidium iodide, 20 μg/ml RNase A, 0.5% NP-40). Stained cells were analyzed by FACSCalibur (Becton Dickinson, Franklin Lakes, N.J.) using CELLQuest software (Becton Dickinson).
Lentivirus infection. Nrf2 shRNA lentivirus particles and Control shRNA lentivirus particles were purchased from SantaCruz. Lentivirus infection was performed according to manufacturer's instructions. Cells (50% confluence) were treated with 5 μg/ml Polybrene (SantaCruz) prior to virus infection. One day after addition of virus, the cells were transferred to fresh medium and cells were selected by treatment with Puromycin (SantaCruz). […]

Nrf2 = details: Western blot

**Q.** How did the “Effect of SFN on CBP501's effect (cell cycle distribution, G2-M)” value ([1]; H1703 Nrf2 knock-down) turn out when `C[S+]([O-])CCCCN=C=S` (stereo not shown) [SFN, Sulforaphane] was run?
**A.** The value was “the effect of SFN was abrogated”.

**Q.** What about the “Effect of SFN on CBP501's effect (cell cycle distribution, G2-M)” value ([1]; H1703 control shRNA) of the same compound?
**A.** Its value is “attenuated CBP501's effect; also recorded: cancels the effect of CBP501”.

**Q.** What about the Nrf2 protein levels (Nrf2; H1703 cells transfected with Nrf2 shRNA) of the same compound?
**A.** The Nrf2 protein levels was “did not cause a similar increase”.

**Q.** And the Nrf2 protein levels (Nrf2; H1703 cells transfected with control shRNA)?
**A.** Its Nrf2 protein levels is “increase in a dose dependent manner”.

— patent US20160061841A1, “NRF2-BASED CANCER TREATMENT AND DETECTION METHODS AND USES” (CanBas Co., Ltd., priority 2014, published 2016)
